Among the data in patent publication US8278312B2, “Imidazo 1,2-a pyrimidine derivatives for the treatment of diseases such as diabetes” (Merck Patent Gesellschaft mit Beschränkter Haftung, priority 2007, dated 2012) are IC50 values, retold here.

One assay deals with T1, SGLT1 (Homo sapiens, UniProt P13866).
T1 construct: expressed in transfected cells
T1 sequence (P13866 1-664): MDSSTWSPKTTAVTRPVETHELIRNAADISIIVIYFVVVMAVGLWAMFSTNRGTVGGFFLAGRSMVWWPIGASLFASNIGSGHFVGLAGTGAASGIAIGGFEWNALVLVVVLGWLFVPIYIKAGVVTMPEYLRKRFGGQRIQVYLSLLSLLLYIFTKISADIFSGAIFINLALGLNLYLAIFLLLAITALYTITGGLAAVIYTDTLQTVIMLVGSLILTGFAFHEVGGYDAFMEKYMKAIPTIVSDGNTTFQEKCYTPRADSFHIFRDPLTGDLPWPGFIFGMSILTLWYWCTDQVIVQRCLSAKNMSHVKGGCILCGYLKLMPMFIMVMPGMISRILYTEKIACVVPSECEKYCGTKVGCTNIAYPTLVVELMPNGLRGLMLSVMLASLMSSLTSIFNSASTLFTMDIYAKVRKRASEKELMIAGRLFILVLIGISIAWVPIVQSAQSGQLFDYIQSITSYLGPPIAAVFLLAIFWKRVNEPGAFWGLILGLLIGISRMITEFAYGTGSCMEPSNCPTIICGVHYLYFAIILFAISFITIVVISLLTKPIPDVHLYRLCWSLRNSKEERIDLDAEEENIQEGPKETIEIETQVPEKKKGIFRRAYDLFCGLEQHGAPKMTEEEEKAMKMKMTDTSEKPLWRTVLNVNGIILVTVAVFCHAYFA
The assay can be described thus: 14C-AMG uptake in BHK cells transfected with SGLT1 (96-well cell-based assay). The note with it: 50 μM AMG, 37° C., 90 min. The source says:
(§1) The compounds can be tested for their SGLT inhibition properties by means of BHK cells expressing SGLT1 and SGLT2. The production of the cells and the testing can be carried out as described below.
To construct the SGLT1 expression vector (KL225), the SLC5A1 gene (homologous to NM_000343) was amplified from a cDNA library using standard PCR technology and cloned over NheI/XhoI sites into the pcDNA3.1 expression vector (Invitrogen) containing neomycin as a selection marker. In this vector, transcription uses the enhancer/promoter of human cytomegalovirus.
(§2) The final vector KL225 together with an additional vector containing a dihydrofolate reductase gene as a selection marker was introduced into cells. Transfection into BHK21 cells (ATCC CCL-10), cultivated in DMEM medium (GIBCO/BRL), supplemented with 10% foetal calf serum (FCS) and 20 mM glutamine, was carried out using calcium phosphate transfections according to Graham, F. L. and van der Ebb, A. J. (1973), Virology 52: 456 with 5-20 μg of uncut plasmids for 10^7 cells. Stable transfectants were selected in medium containing 1 mg/ml of G418 (GIBCO/BRL) and 20-5000 nM methotrexate as final concentration, where only cells which expressed the neomycin gene and overexpressed the dhfr gene were able to grow. After growth for 2-3 weeks, the cells were cloned (0.5 cells/well) and the clones were investigated for SGLT expression in radioactivity uptake tests. […]
(§3) A 96-well cell-based assay was developed and adapted to HTS requirements:
(§4) BHK cells (transfected with SGLT1 or SGLT2) were seeded into 96-well microtitre plates (Cultureplates, Perkin Elmer). After at least 24 h, medium was removed, and the cell layer was washed with assay buffer (140 mM NaCl, 2 mM KCl, 1 mM CaCl2, 1 mM MgCl2, 10 mM HEPES, 5 mM Tris, adjusted to pH 7.4 using 1 M KOH). After addition of 40 μl of assay buffer, 50 μl of AMG (50 μM for SGLT1 and 2 mM for SGLT2) in the presence or absence of compounds, the cells were incubated in a total volume of 100 μl at 37° C. for 90 min. Supernatant was removed by suction and discarded. Cells were washed and lysed by addition of 50 μl of water. After 10 min at room temperature, 200 μl of Micrsoscint 40 (Perkin Elmer) were added. The radioactivity was counted in a Topcount microplate scintillation counter (Perkin Elmer). The non-specific uptake was determined in sodium-free assay buffer (266 mM sucrose, 2 mM KCl, 1 mM CaCl2, 1 mM MgCl2, 10 mM HEPES, 5 mM Tris, adjusted to pH 7.4 using 1 M KOH).

The target in another assay is T2, SGLT2 (Homo sapiens, UniProt P31639).
T2 construct: expressed in transfected cells
T2 sequence (P31639 1-672): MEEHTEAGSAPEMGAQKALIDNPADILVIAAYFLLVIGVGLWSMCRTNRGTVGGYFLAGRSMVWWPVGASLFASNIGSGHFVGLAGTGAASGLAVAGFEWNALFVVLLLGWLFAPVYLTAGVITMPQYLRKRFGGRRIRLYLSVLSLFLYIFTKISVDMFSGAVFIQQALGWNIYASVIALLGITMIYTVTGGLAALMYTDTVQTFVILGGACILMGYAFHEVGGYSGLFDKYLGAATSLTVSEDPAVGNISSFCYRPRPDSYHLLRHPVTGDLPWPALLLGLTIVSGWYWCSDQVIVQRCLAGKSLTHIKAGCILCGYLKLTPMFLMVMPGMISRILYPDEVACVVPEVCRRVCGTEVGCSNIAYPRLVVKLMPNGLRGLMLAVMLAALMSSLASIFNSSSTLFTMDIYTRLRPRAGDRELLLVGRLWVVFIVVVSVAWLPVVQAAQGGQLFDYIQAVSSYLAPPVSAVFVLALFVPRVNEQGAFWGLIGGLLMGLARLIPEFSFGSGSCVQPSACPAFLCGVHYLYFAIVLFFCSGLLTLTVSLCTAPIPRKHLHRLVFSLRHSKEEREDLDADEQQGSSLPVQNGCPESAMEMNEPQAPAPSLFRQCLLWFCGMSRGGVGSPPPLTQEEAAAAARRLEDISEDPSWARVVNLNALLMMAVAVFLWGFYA
The assay can be described thus: 14C-AMG uptake in BHK cells transfected with SGLT2 (96-well cell-based assay). The settings on record: 2 mM AMG, 37° C., 90 min.
From the text: as §1
To construct the SGLT2 expression vector (KL224), the SLC5A2 gene (homologous to NM_003041) was amplified from a cDNA library using standard PCR technology and cloned over NheI/XhoI sites into PCI-neo expression vector (Promega) containing neomycin as a selection marker. In this vector, transcription uses the enhancer/promoter of human cytomegalovirus and the SV40 polyadenylation signal.
as §2, with “KL224” for “KL225”
as §3, §4

For the compound `CNc1nnc(-c2cccc(Cl)c2-c2nc3ncccn3c2Nc2c(C)cccc2C)o1` [Compound A19, {2-[2-Chloro-6-(5-methylamino-1,3,4-oxadiazol-2-yl)phenyl]imidazo[1,2-a]-pyrimidin-3-yl}-(2,6-dimethylphenyl)amine], the IC50 on SGLT1 fell in the range of 1000 to 10000 nM; on SGLT2, 10 to 1000 nM.
Take `COC(=O)c1cccc(Cl)c1-c1nc2ncccn2c1Nc1c(C)cccc1C` [Compound A20, Methyl 3-chloro-2-[3-(2,6-dimethyl-phenylamino)imidazo[1,2-a]pyrimidin-2-yl)benzoate]: the IC50 against SGLT1 was above 10000 nM; at SGLT2 it was 10 to 1000 nM.
For `CNc1nnc(-c2cc(OC)ccc2-c2nc3ncccn3c2Nc2c(C)cccc2C)o1` [Compound A21, (2,6-Dimethylphenyl)-{2-[4-methoxy-2-(5-methylamino-1,3,4-oxadiazol-2-yl)-phenyl]imidazo[1,2-a]pyrimidin-3-yl}-amine] the same measures were above 10000 nM and 10 to 1000 nM.
For `CNc1nnc(-c2cccc(Cl)c2-c2nc3ncccn3c2Nc2c(C)cccc2Cl)o1` [Compound A22, {2-[2-Chloro-6-(5-methylamino-1,3,4-oxadiazol-2-yl)phenyl]imidazo[1,2-a]-pyrimidin-3-yl}-(2-chloro-6-methylphenyl)-amine] the same measures were 10 to 1000 nM and 10 to 1000 nM.
For `CNc1nnc(-c2cc(OC)cc(OC)c2-c2nc3ncccn3c2Nc2c(Cl)ccc(C)c2Cl)o1` [Compound A23, (2,6-Dichloro-3-methylphenyl)-{2-[2,4-dimethoxy-6-(5-methylamino-1,3,4-oxadiazol-2-yl)phenyl]imidazo[1,2-a]-pyrimidin-3-yl}amine] the same measures were 10 to 1000 nM and 10 to 1000 nM.
For the compound `CCNC(=O)c1cc(OC)cc(OC)c1-c1nc2ncccn2c1Nc1c(Cl)ccc(C)c1Cl` [Compound A24, 2-[3-(2,6-dichloro-3-methylphenylamino)imidazo[1,2-a]-pyrimidin-2-yl]-N-ethyl-3,5-dimethoxybenzamide], the 50% inhibitory concentration (IC50) against SGLT1 and on SGLT2 was 10 to 1000 nM in each case.
For `CNc1nnc(-c2ccccc2-c2nc3ncccn3c2Nc2c(C)noc2C)o1` [Compound A25, (3,5-Dimethylisoxazol-4-yl)-{2-[2-(5-methylamino-1,3,4-oxadiazol-2-yl)-phenyl]imidazo[1,2-a]pyrimidin-3-yl}-amine], the IC50 against SGLT1 and on SGLT2 was above 10000 nM throughout.
As to `CNc1nnc(-c2cccc(F)c2-c2nc3ncccn3c2Nc2c(C)cccc2Cl)o1` [Compound A26, (2-Chloro-6-methylphenyl)-{2-[2-fluoro-6-(5-methylamino-1,3,4-oxadiazol-2-yl)-phenyl]imidazo[1,2-a]pyrimidin-3-yl}-amine], the concentration for half-maximal inhibition (IC50) lay in the range of 1000 to 10000 nM against SGLT1 and 10 to 1000 nM at SGLT2.
The corresponding values for `CNc1nnc(-c2cccc(F)c2-c2nc3ncccn3c2Nc2c(C)cc(F)cc2C)o1` [Compound A27, (4-Fluoro-2,6-dimethylphenyl)-{2-[2-fluoro-6-(5-methylamino-1,3,4-oxadiazol-2-yl)phenyl]imidazo[1,2-a]pyrimidin-3-yl}-amine] are 1000 to 10000 nM and 10 to 1000 nM.
For “(2,6-Dichlorophenyl)-{2-[2-(5-methyl-amino-1,3,4-oxadiazol-2-yl)phenyl]-imidazo[1,2-a]pyrimidin-3-yl}amine [Compound A14]” the same measures were 1000 to 10000 nM and 10 to 1000 nM.
